Active and inactive are the calls of the source. No rule for the calls is given here.
System: CCRIS mutagenicity, Ames/micronucleus/aberration tests
Assay: CCRIS mutagenicity studies

**Q.** For `O=P1(N(CCCl)CCCl)NCCCO1` (stereo not drawn), which mutagenic call (End Point: IN VITRO CHROMOSOMAL ABERRATIONS, Test System: CHL/IU CELLS, Metabolic Activation: RAT, LIVER, S-9, PHENOBARBITAL AND 5,6-BENZOFLAVONE) is on record?
**A.** active; positive (structural changes)

**Q.** What about the mutagenic call (End Point: IN VITRO CHROMOSOMAL ABERRATIONS, Test System: HUMAN LYMPHOCYTES, Metabolic Activation: RAT LIVER S-9, AROCLOR 1254) of the same compound?
**A.** active; positive

**Q.** What about the mutagenic call (End Point: IN VITRO MICRONUCLEUS, Test System: BOVINE LYMPHOCYTES, Metabolic Activation: S-9 MIX, AROCLOR 1254) of the same compound?
**A.** active; positive

**Q.** What about the mutagenic call (End Point: IN VITRO MICRONUCLEUS, Test System: CHL/IU CELLS, Metabolic Activation: RAT, LIVER, S-9, PHENOBARBITAL AND 5,6-BENZOFLAVONE) of the same compound?
**A.** active; positive

**Q.** And the mutagenic call (End Point: IN VITRO MICRONUCLEUS, Test System: CHO CELLS, Metabolic Activation: RAT, LIVER, S-9, AROCLOR 1254)?
**A.** active; positive

**Q.** And the mutagenic call (End Point: IN VIVO MICRONUCLEUS, Test System: BLOOD ERYTHROCYTES, Species: MOUSE, Strain/Sex: CD-1/MALE, Route: ORAL)?
**A.** active; positive

**Q.** And the mutagenic call (End Point: IN VIVO MICRONUCLEUS, Test System: BONE MARROW CELLS, Species: MOUSE, Strain/Sex: CD-1/MALE, Route: GAVAGE)?
**A.** active; positive

**Q.** What about the mutagenic call (End Point: IN VIVO MICRONUCLEUS, Test System: BONE MARROW ERYTHROCYTES, Species: HAMSTER, Strain/Sex: SYRIAN/MALE, Route: INTRAPERITONEAL) of the same compound?
**A.** active; positive

**Q.** What about the mutagenic call (End Point: IN VIVO MICRONUCLEUS, Test System: BONE MARROW POLYCHROMATIC ERYTHROCYTES, Species: MOUSE, Strain/Sex: SWISS/MALE, Route: IP) of the same compound?
**A.** active; positive

**Q.** What about the mutagenic call (End Point: In vivo chromosomal aberrations, Test System: Bone marrow cells, Species: Rat, Strain/Sex: Wistar/Male, Route: Intraperitoneal injection) of the same compound?
**A.** active; positive (structural changes: gaps, breaks). effect by 100 or 200 mg/kg alpha-li

**Q.** What about the mutagenic call (End Point: In vivo micronucleus, Test System: Bone marrow erythrocytes, Species: Mouse, Strain/Sex: NMRI/Male, Route: Intraperitoneal) of the same compound?
**A.** active; positive (hawthorn extract significantly reduced micronucleated polychromatic er

**Q.** What about the mutagenic call (End Point: In vivo micronucleus, Test System: Bone marrow erythrocytes, Species: Mouse, Strain/Sex: Swiss/Male, Route: Intraperitoneal) of the same compound?
**A.** active; positive (pue or 4-nc showed dose-dependent protective effect against cyclophosp

**Q.** And the mutagenic call (End Point: In vivo micronucleus, Test System: Micronucleated hepatocytes, Species: Rat, Strain/Sex: F344/Male, Route: Oral)?
**A.** inactive; negative

**Q.** What about the mutagenic call (End Point: In vivo micronucleus, Test System: Peripheral blood and bone marrow erythrocytes, Species: Dog, Strain/Sex: Beagle/Male and female, Route: Intravenous) of the same compound?
**A.** active; positive. evaluations by flow cytometry and manual counting; multi-laboratory st

**Q.** What about the mutagenic call (End Point: MICRONUCLEUS, Test System: BONE MARROW, Species: RAT, Strain/Sex: WISTAR, Route: INTRAPERITONEAL) of the same compound?
**A.** active; positive

**Q.** What about the mutagenic call (Test System: AMES SALMONELLA TYPHIMURIUM, Strain/Indicator: TA97, Metabolic Activation: NONE, Method: STANDARD PLATE) of the same compound?
**A.** inactive; negative

**Q.** What about the mutagenic call (Test System: AMES SALMONELLA TYPHIMURIUM, Strain/Indicator: TA97, Metabolic Activation: RAT, LIVER, S-9, PHENOBARBITAL AND ALPHA-NAPHTHOFLAVONE, Method: STANDARD PLATE) of the same compound?
**A.** inactive; negative

**Q.** And the mutagenic call (Test System: AMES SALMONELLA TYPHIMURIUM, Strain/Indicator: TA98, Metabolic Activation: NONE, Method: PREINCUBATION)?
**A.** inactive; negative

**Q.** What about the mutagenic call (Test System: AMES SALMONELLA TYPHIMURIUM, Strain/Indicator: TA98, Metabolic Activation: NONE, Method: SPIRAL ASSAY) of the same compound?
**A.** inactive; negative

**Q.** And the mutagenic call (Test System: AMES SALMONELLA TYPHIMURIUM, Strain/Indicator: TA98, Metabolic Activation: NONE, Method: STANDARD PLATE)?
**A.** inactive; negative

**Q.** And the mutagenic call (Test System: AMES SALMONELLA TYPHIMURIUM, Strain/Indicator: TA98, Metabolic Activation: RAT, LIVER, S-9, AROCLOR 1254, Method: SPIRAL ASSAY)?
**A.** inactive; negative

**Q.** What about the mutagenic call (Test System: AMES SALMONELLA TYPHIMURIUM, Strain/Indicator: TA98, Metabolic Activation: RAT, LIVER, S-9, PHENOBARBITAL AND ALPHA-NAPHTHOFLAVONE, Method: STANDARD PLATE) of the same compound?
**A.** inactive; negative

**Q.** What about the mutagenic call (Test System: AMES SALMONELLA TYPHIMURIUM, Strain/Indicator: TA98, Metabolic Activation: S-9, Method: PREINCUBATION) of the same compound?
**A.** inactive; negative

**Q.** And the mutagenic call (Test System: AMES SALMONELLA TYPHIMURIUM, Strain/Indicator: TA98, Metabolic Activation: S-9, Method: STANDARD PLATE)?
**A.** inactive; negative

**Q.** And the mutagenic call (Test System: AMES SALMONELLA TYPHIMURIUM, Strain/Indicator: TA100, Metabolic Activation: MOUSE, LIVER, S-9, PHENOBARBITAL AND BETA-NAPHTHOFLAVONE, Method: STANDARD PLATE)?
**A.** active; positive

**Q.** What about the mutagenic call (Test System: AMES SALMONELLA TYPHIMURIUM, Strain/Indicator: TA100, Metabolic Activation: MOUSE, LIVER, S-9, PHENOBARBITAL, BETA-NAPHTHOFLAVONE, ISOSAFROLE, ETHANOL, PREGNENOLONE AND 16ALPHA-CARBONITRILE, Method: STANDARD PLATE) of the same compound?
**A.** active; positive

**Q.** And the mutagenic call (Test System: AMES SALMONELLA TYPHIMURIUM, Strain/Indicator: TA100, Metabolic Activation: NONE, Method: PREINCUBATION)?
**A.** inactive; negative

**Q.** What about the mutagenic call (Test System: AMES SALMONELLA TYPHIMURIUM, Strain/Indicator: TA100, Metabolic Activation: NONE, Method: SPIRAL ASSAY) of the same compound?
**A.** active; positive

**Q.** What about the mutagenic call (Test System: AMES SALMONELLA TYPHIMURIUM, Strain/Indicator: TA100, Metabolic Activation: RAT, LIVER, PARENCHYMAL CELLS (CRYOPRESERVED), Method: PREINCUBATION) of the same compound?
**A.** inactive; negative

**Q.** And the mutagenic call (Test System: AMES SALMONELLA TYPHIMURIUM, Strain/Indicator: TA100, Metabolic Activation: RAT, LIVER, PARENCHYMAL CELLS (FRESHLY ISOLATED OR STORED FOR 1 D), Method: PREINCUBATION)?
**A.** active; positive

**Q.** And the mutagenic call (Test System: AMES SALMONELLA TYPHIMURIUM, Strain/Indicator: TA100, Metabolic Activation: RAT, LIVER, S-9, AROCLOR 1254, Method: SPIRAL ASSAY)?
**A.** active; positive

**Q.** What about the mutagenic call (Test System: AMES SALMONELLA TYPHIMURIUM, Strain/Indicator: TA100, Metabolic Activation: RAT, LIVER, S-9, AROCLOR 1254, Method: STANDARD PLATE) of the same compound?
**A.** active; positive

**Q.** What about the mutagenic call (Test System: AMES SALMONELLA TYPHIMURIUM, Strain/Indicator: TA100, Metabolic Activation: RAT, LIVER, S-9, PHENOBARBITAL AND ALPHA-NAPHTHOFLAVONE, Method: STANDARD PLATE) of the same compound?
**A.** active; positive
